According to paper PMC8143347, “Metabolism and Interspecies Variation of IMMH-010, a Programmed Cell Death Ligand 1 Inhibitor Prodrug” (Pharmaceutics, 2021):

How the values were obtained:
[1] = Body weight in MC38 model
Protocol: The antitumor activity of IMMH-010 was evaluated by B16F10 melanoma and MC38 colon carcinoma xenograft models. The B16F10 and MC38 cells were resuspended in saline (1.5 × 10^6 cells/0.2 mL saline) and injected subcutaneously into the right flanks of each mouse on day 0. The treated mice received once-daily oral administration of IMMH-010 maleate (1.25, 2.5, 5, and 10 mg/kg, n = 10) by oral gavage (PO) for 19 consecutive days, whereas the control mice received vehicle (0.5% carboxymethyl cellulose, n = 10). The mice in the positive control group received the anti-mouse PD-L1 antibody (696618M2, Bio X Cell, West Lebanon, NH, USA) at 10 mg/kg intraperitoneally every 3 days (n = 10). The first-line antineoplastic drug cyclophosphamide (CTX) was administered at doses of 80 and 40 mg/kg weekly in the B16F10 and MC38 models (n = 10), respectively. After the last treatment, on day 19, the mice were sacrificed, and the tumor and spleen were stripped and weighed. The tumor growth inhibition (TGI) was calculated as TGI = (1 − treatment group tumor weight/vehicle group tumor weight) × 100.

CES1 = target: T1, CES1 (Homo sapiens, UniProt P23141); test: IMMH-010 hydrolysis by recombinant human CES1; assay type: in vitro ADME; set-up: purchased Cypex Ltd. (Dundee, United Kingdom); conditions: 10 μM, CES1 0.1 mg/mL, 15 min, 37 °C
T1 sequence (P23141 18-567): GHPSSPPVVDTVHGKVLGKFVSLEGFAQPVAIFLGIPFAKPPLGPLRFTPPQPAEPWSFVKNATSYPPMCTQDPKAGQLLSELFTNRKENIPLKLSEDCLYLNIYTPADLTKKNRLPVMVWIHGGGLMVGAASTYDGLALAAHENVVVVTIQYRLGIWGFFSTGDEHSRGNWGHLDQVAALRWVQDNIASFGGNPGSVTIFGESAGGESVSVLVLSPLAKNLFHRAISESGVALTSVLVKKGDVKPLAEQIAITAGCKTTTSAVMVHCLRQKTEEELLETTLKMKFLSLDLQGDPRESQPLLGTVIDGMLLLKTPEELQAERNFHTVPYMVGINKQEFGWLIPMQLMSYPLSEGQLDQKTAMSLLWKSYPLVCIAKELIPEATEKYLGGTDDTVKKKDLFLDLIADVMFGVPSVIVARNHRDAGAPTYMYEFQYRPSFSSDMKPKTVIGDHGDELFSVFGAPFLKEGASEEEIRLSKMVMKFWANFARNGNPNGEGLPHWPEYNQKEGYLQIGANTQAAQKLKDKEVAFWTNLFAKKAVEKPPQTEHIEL
Protocol: To verify the role of CES1, CES2, and AADAC in human metabolism of […]-010 (10 μM) was incubated individually with recombinant human CES1, CES2, and AADAC (0.1 mg protein/mL) at 37 °C for 15 min. Lidocaine (500 μM), CPT-11 (2 μM), and phenacetin (1 mM), which are substrates of CES1, CES2, and AADAC, were used as positive controls.

[2] = IMMH-010 stability in rat plasma; assay type: in vitro ADME; conditions: 10 μM, 4 °C, 60 min
Protocol: IMMH-010 hydrolysis was investigated in human, monkey, rat, and mouse plasma. IMMH-010 (1 μM) was incubated in human, monkey, or […] plasma (0.2 mL) at 37 °C for 120 min. IMMH-010 (10 μM) was incubated in rat or mouse plasma (0.2 mL) at 4 °C for 60 min. The experiments were performed in triplicate. The reactions were initiated by the addition of IMMH-010 (10 μM). After incubation, the reactions were stopped by adding 2 volumes of ice-cold acetonitrile. After vortexing and centrifuging, the concentrations of IMMH-010 and YPD-29B in the supernatant were determined by liquid chromatography with tandem mass spectrometry (LC-MS/MS). The compound olmesartan (10 μM), a substrate of paraoxonase 1, was set as the positive control.

[3] = Plasma and tumor PK in MC38 colon cancer xenograft mice; assay type: in vivo, mouse; conditions: after last oral dose of IMMH-010 maleate 5 mg/kg
Protocol: After the final dose, tumor and blood samples treated with IMMH-010 maleate (5 mg/kg) were collected over 72 h. Blood was exposed in an EP tube containing 500 mM NaF and 0.5% heparin sodium. Plasma samples were obtained by centrifugation, and tumor tissues were homogenized with 3 volumes (w/v) of saline on ice. The concentration of IMMH-010 and YPD-29B in plasma and tumor samples was quantitated by an LC-MS/MS method.
LC-MS/MS was performed using a triple quadrupole mass spectrometer (API 4000, AB Sciex, Framingham, MA, USA) with an ultra-performance liquid chromatography system (LC-30A, Shimadzu, Kyoto, Japan). Analyst 1.6.2 software (AB Sciex) was used for data acquisition and analysis. Mobile phase A was 1 mM ammonium acetate and mobile phase B was methanol. The mobile phase was delivered with the following gradient elution profile: 0–2.8 min, 70% B; 2.9 min, 85% B; 3 min, 90% B; 3.1–6.8 min, 100% B; 6.9–12 min, 70% B. The flow rate was 0.3 mL/min, and the column oven was maintained at 35 °C. The specific transitions monitored were 641.3 → 494.2 for IMMH-010, 597 → 155 for YPD-29B, 512 → 247 for M3, and 524 → 246 for M4.
All statistics were calculated using GraphPad Prism 8.0 software (San Diego, CA, USA) designed for one-way ANOVA. Pharmacokinetic parameters were calculated with a non-compartmental analysis using WinNonlin Version 6.3 (Pharsight, Mountain View, CA, USA). ADMET predictor V10.0 (Simulations Plus, Inc., Lancaster, CA, USA) and Microsoft Excel (Microsoft, Redmond, WA, USA) were used to process the data (i.e., half-life (t1/2) and hepatic clearance (CLhep) determination). Data were expressed as means ± standard deviations (SD). Results were considered statistically significant if the p-value <0.05, <0.01 and <0.001.

CC(C)OC(=O)[C@H](CO)NCc1cc(Cl)c(OCc2cccc(-c3ccccc3)c2Br)cc1OCc1cccnc1 [IMMH-010]
Body Weight (g) X ± SD Finish ([1]; MC38, IMMH-010 maleate 1.25 mg/kg PO once daily 19 days): 24.3 ± 2.1 g
Body Weight (g) X ± SD Start ([1]; MC38, IMMH-010 maleate 1.25 mg/kg PO once daily): 22.2 ± 0.4 g
Body Weight (g) X ± SD Finish ([1]; MC38, IMMH-010 maleate 2.5 mg/kg PO once daily 19 days): 25.3 ± 2.3 g
Body Weight (g) X ± SD Start ([1]; MC38, IMMH-010 maleate 2.5 mg/kg PO once daily): 22.0 ± 0.6 g
Body Weight (g) X ± SD Finish ([1]; MC38, IMMH-010 maleate 5 mg/kg PO once daily 19 days): 23.7 ± 1.8 g
Body Weight (g) X ± SD Start ([1]; MC38, IMMH-010 maleate 5 mg/kg PO once daily): 21.9 ± 0.8 g
Body Weight (g) X ± SD Finish ([1]; MC38, IMMH-010 maleate 10 mg/kg PO once daily 19 days): 25.0 ± 1.7 g
Body Weight (g) X ± SD Start ([1]; MC38, IMMH-010 maleate 10 mg/kg PO once daily): 21.9 ± 0.7 g
effect on body weight ([1]; MC38 model, IMMH-010 maleate PO once a day for 19 days): without weight loss
remaining amount of IMMH-010 (CES1): 12.9%
plasma stability [2]: decreased time-dependently
concentration of IMMH-010 in plasma and tumor tissues [3]: < 1 ng/mL
